Measurements as given in patent US5480885A, “Ergoline derivatives of 1-propinylamine, a process for the manufacture thereof and the use thereof for medicaments” (priority 1991, dated 1996).
Entries after “also recorded” stand apart in the source; their conditions may differ. Where two headings read alike, the source gives them in different places.

How the values were obtained:
catalepsy in rats = assay type: in vivo, rat; conditions: rat, in vivo, sc; rats
Description: (§1) The s.c. application of the compounds of Example 5 (0.5 to 16 mg/kg) and of Example 8 (0.125 to 4 mg/kg), respectively, caused catalepsy in rats (the method was described by Morelli and Chiara, Europ. J. Pharmacol. 117, 179-185, 1985).

[1] = biological target: T1, isolated rabbit thoracic aorta (serotonin) (Oryctolagus cuniculus, UniProt G1SYA7)
T1 construct: isolated rabbit thoracic aorta; from tissue; host or cells: isolated rabbit thoracic aorta
T1 sequence (G1SYA7 entry or part of it): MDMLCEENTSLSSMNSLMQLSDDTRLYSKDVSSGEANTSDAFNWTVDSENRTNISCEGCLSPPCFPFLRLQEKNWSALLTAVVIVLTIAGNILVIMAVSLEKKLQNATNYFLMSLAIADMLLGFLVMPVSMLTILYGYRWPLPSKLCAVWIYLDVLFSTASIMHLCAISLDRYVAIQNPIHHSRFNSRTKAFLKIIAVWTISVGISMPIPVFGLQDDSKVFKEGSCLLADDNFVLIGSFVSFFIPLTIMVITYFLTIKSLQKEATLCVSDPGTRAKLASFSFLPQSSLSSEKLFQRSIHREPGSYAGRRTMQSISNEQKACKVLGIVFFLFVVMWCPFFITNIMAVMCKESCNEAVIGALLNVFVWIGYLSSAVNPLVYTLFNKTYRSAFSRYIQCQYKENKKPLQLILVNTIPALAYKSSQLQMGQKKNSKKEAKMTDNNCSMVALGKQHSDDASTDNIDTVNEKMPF

[2] = test system: isolated rabbit thoracic aorta (noradrenaline); assay: inhibition of the constrictive activity of noradrenaline on the isolated rabbit thoracic aorta
[3] = test system: isolated rat uterus (serotonin); assay: inhibition of serotonin-induced contractions of the isolated rat uterus; conditions: serotonin-induced contractions (serotonin 2.47×10^-8 M where printed)
isolated rat uterus = assay: uterotonic activity (isolated rat uterus); conditions: in words
[4] = blood pressure and heart rate in pentobarbital-anesthetized normotensive rats; assay type: in vivo, rat; conditions: rat, in vivo, iv; normotensive rats, pentobarbital-induced anesthesia; read-out: ED50, decrease of the mean arterial blood pressure
[5] = test system: pentobarbital-anesthetized normotensive rats; assay: as above; assay type: in vivo, rat; conditions: 450 μg/kg i.v.; for effect on carotid artery pressure / effect on heart rate: in words
pithed rats = assay: vasoconstriction / diastolic pressure in pithed rats (Gillespie); assay type: in vivo, rat; conditions: 450 μg/kg i.v.; for peripheral vasoconstriction: in words
5-HT2 receptors = biological target: T2, 5-HT2 receptors (Mus musculus, UniProt P35363); assay: inhibition of the head twitch response after 5-HTP/carbidopa; assay type: in vivo, mice; conditions: ip; for ED50: mice, read-out: ID50, inhibition of head twitch response
T2 construct: The head twitch model in mice; from tissue; host or cells: living mice (central nervous system)
T2 sequence (P35363 whole entry): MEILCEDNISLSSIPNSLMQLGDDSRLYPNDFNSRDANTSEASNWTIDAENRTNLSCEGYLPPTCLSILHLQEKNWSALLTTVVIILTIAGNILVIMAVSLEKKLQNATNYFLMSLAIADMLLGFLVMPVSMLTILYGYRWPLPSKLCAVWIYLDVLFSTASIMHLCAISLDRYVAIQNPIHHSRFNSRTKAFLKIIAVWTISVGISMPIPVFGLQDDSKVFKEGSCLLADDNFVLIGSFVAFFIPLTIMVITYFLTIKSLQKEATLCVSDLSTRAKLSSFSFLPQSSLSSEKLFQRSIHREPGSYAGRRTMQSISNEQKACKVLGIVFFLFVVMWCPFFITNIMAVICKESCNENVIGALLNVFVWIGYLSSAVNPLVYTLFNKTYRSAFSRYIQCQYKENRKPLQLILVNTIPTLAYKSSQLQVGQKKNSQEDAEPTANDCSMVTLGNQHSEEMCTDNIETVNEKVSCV
Description: The substance was injected 15 minutes prior to DL-5-HTP. The head twitch was recorded from 30 to 35 minutes after the DL-5-HTP injection (modified method according to Handley and Singh, Br. J. Pharmacol. 86, 297 (1985)).
The compound was injected 15 minutes prior to L-5-HTP (modified method according to Handley and Singh, Br. J. Pharmacol. 86, 297 (1985)).
The head twitch model in mice represents an experimental model for determining the hallucinogenic action of a compound (the method was described by Handley and Singh, Br.J.Pharmacol., 86, 297-303, 1985). It is believed that the response is conveyed via the 5-HT2 receptors.

[6] = biological target: T3, 5-HT1A serotoninergic receptor (Homo sapiens, UniProt P08908); assay: binding at [^3 H] 8-OH-DPAT binding site; conditions: for affinity to 5-HT1A receptor: [^3 H] 8-OH-DPAT, in words
T3 sequence (P08908 1-422): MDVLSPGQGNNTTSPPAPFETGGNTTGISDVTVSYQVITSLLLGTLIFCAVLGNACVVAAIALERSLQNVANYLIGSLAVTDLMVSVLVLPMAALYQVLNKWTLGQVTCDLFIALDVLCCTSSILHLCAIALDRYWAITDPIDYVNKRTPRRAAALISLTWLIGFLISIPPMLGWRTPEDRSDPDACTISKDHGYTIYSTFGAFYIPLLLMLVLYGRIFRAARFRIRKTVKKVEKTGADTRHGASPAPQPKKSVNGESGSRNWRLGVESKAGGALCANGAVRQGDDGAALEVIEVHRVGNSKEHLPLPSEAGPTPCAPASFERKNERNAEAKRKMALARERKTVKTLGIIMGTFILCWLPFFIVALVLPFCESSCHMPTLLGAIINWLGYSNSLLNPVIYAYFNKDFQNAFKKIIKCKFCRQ
Text: (§2) Binding affinities of the compounds of Examples 1

[7] = biological target: T3, 5-HT1A serotoninergic receptor; assay: functional test, 5-HT1A serotoninergic receptor; conditions: in words
sigma receptor [8] = assay: binding at [^3 H] DTG binding site; conditions: in words
sigma receptor [9] = assay: functional test, sigma receptor; conditions: in words
5-HT2 receptor = 5-HT2 receptor (Homo sapiens, UniProt P28223); assay: biochemical; assay type: binding; conditions: for Ki: 5-HT2, [^3 H]Ketanserin, read-out: Ki; for affinity for 5-HT2 receptors: in words
5-HT2 receptor, sequence (P28223 whole entry): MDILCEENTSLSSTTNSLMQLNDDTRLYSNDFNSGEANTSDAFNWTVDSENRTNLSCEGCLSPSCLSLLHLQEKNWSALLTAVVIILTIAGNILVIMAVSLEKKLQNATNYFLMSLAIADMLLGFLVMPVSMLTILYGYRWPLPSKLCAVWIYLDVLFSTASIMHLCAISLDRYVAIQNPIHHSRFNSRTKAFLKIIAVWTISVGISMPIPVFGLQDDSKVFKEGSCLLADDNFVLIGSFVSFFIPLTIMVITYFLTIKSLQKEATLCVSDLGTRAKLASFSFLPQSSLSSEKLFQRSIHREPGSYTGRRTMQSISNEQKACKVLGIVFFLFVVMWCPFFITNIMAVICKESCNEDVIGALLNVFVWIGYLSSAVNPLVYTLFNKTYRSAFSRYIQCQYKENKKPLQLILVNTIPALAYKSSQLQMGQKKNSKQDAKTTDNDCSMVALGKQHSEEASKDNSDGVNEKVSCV
Text: as §2

D2 receptor = D2 receptor (Homo sapiens, UniProt P14416); assay: binding, [^3 H]Raclopride; conditions: for Ki: D2, [^3 H]Raclopride; for affinity for D2 receptors: in words
D2 receptor, sequence (P14416 whole entry): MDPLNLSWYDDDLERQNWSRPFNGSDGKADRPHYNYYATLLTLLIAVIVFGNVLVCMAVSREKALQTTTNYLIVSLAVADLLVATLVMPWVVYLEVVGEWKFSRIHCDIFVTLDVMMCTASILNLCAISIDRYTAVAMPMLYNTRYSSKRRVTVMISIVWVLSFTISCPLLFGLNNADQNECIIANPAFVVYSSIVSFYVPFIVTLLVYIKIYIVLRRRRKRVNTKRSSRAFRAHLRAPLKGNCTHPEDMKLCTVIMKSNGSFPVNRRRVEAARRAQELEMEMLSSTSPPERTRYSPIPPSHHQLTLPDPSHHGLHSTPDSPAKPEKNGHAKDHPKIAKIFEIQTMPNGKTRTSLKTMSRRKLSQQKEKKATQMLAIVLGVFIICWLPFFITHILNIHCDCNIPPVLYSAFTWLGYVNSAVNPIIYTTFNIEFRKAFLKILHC
Text: as §2

D1 receptor = D1 receptor (Homo sapiens, UniProt P21728); assay: binding, [^3 H]SCH23390
D1 receptor, sequence (P21728 whole entry): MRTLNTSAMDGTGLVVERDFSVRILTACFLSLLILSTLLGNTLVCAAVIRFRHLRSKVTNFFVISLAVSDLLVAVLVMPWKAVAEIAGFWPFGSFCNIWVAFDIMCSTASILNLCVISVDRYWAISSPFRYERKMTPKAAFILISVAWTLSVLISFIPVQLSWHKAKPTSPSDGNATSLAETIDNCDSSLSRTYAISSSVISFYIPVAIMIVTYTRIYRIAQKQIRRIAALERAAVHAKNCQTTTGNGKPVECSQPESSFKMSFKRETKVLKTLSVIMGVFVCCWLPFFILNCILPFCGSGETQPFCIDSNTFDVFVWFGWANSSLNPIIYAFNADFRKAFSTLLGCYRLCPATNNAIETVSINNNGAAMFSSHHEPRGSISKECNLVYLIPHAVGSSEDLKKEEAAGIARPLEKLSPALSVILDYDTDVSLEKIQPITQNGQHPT
Text: (§3) Binding affinities of the compounds of Examples 5

α1 receptor = assay: binding, [^3 H]Prazosin
Text: as §3

D2 receptors [10] = biological target: T4, D2 receptors (Rattus norvegicus, UniProt P61169); assay: apomorphine-induced locomotion; assay type: in vivo; conditions: sc, -45 min., apomorphine 0.4 mg/kg s.c., rats, read-out: ID50, apomorphine-induced locomotion
T4 construct: from tissue; host or cells: living rats (central nervous system)
T4 sequence (P61169 whole entry): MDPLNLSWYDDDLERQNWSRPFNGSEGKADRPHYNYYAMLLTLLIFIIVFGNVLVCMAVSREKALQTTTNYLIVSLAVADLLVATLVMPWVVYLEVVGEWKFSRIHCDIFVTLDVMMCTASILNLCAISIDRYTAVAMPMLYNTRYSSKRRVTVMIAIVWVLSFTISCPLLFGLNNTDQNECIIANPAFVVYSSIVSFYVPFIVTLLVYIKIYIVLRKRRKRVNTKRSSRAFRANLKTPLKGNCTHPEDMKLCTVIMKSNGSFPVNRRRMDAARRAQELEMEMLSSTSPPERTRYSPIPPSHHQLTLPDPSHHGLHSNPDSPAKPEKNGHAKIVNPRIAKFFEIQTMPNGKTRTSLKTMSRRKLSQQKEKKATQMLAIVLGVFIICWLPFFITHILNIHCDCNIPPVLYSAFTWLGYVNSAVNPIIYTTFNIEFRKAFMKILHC

D2 receptors [11] = biological target: T5, D2 receptors (Mus musculus, UniProt P61168); assay: apomorphine-induced climbing in mice; assay type: in vivo; conditions: ip, -30 min., apomorphine 1.5 mg/kg s.c., read-out: ID50, climbing behavior
T5 construct: from tissue; host or cells: living mice (central nervous system)
T5 sequence (P61168 whole entry): as the sequence (P61169 whole entry) above, with A29P counted along it
Description: The application of apomorphine in a dose of 1.5 mg/kg s.c. caused a characteristic climbing behavior in mice.

rats = assay: catalepsy in rats; assay type: in vivo, rat; conditions: in words
Description: as §1

α1 receptors = assay: noradrenaline-induced lethality in rats; assay type: in vivo, rat; conditions: s.c.
[12] = spontaneous motor activity in mice; assay type: in vivo; conditions: mouse, in vivo, ip; mice; read-out: ID50, inhibition of spontaneous motor activity
mice = assay: spontaneous motor activity in mice; assay type: in vivo; conditions: two models (motor activity and pentobarbital anesthesia); vs haloperidol; in words
[13] = prolongation of pentobarbital-induced anesthesia in mice; conditions: mouse, in vivo, ip
[14] = overall antipsychotic action and side-effect profile (summary statements); assay type: in vivo; conditions: in words
[15] = test system: isolated rabbit thoracic aorta; assay: constriction of the isolated rabbit thoracic aorta
pupil = assay: dilatation of the pupil in mice (Pulewka); assay type: in vivo; conditions: in words
5-HT1A receptors = assay: spontaneous tail-flicks in rats; assay type: in vivo, rat; conditions: in words

O=C(CCCN1CCC(O)(c2ccc(Cl)cc2)CC1)c1ccc(F)cc1 [haloperidole, reference compound]
ED50 (catalepsy in rats): 0.019 mg/kg

C#CCN(C)C(=O)[C@@H]1C=C2c3cccc4[nH]c(Br)c(c34)C[C@H]2N(C)C1 [Example 5, 2-Bromo-9,10-didehydro-N-methyl-N-(2'-propinyl)-6-methylergoline-8β-carboxamide]
mode of inhibition of serotonin constriction ([1]; in words): competitively inhibited
Kb ([1]; vs serotonin, read-out: pA2 (converted)): 11.7 nM
mode of inhibition of noradrenaline constriction ([2]; in words): competitively inhibited
pA2 ([2]; vs noradrenaline): 6.45
IC50 [3]: 12.5 nM
uterotonic activity (isolated rat uterus): no uterotonic activity
ED50 [4]: 0.42 mg/kg
effect on carotid artery pressure [5]: small, yet statistically significant decrease in carotid artery pressure and heart rate
effect on heart rate [5]: small, yet statistically significant decrease in carotid artery pressure and heart rate
maximum reduction in carotid artery pressure ([5]; vs initial level): 10%
reduction in heart rate ([5]; vs initial level): 10%
peripheral vasoconstriction (pithed rats): slowly developing peripheric vasoconstriction
peripheric vasoconstriction, increase (pithed rats; vs control): 20%
ED50 (5-HT2 receptors; L-5-HTP/carbidopa, 15 minutes prior): 3.8 mg/kg
affinity to 5-HT1A receptor [6]: possessed affinity
functional activity at 5-HT1A [7]: did not indicate any activity
affinity to sigma receptor (sigma receptor [8]): possessed affinity
functional activity at sigma receptor (sigma receptor [9]): indicated an antagonistic activity
Ki (5-HT2 receptor): 18 nM
affinity for 5-HT2 receptors (5-HT2 receptor): high affinity
Ki (D2 receptor): 2.3 nM
affinity for D2 receptors (D2 receptor): high affinity
Ki (D1 receptor; D1, [^3 H]SCH23390): 97 nM
affinity for D1 receptors (D1 receptor; in words): lower
affinity for α1 receptors (α1 receptor; in words): lower
Ki (α1 receptor; α1, [^3 H]Prazosin): 29 nM
ED50 (D2 receptors [10]): 0.66 mg/kg
ED50 (D2 receptors [11]): 6.89 mg/kg
ED50 (catalepsy in rats): 1.4 mg/kg
cataleptic action compared with haloperidole (rats): lesser than the action caused by the typical antipsychotic haloperidole
ID50, noradrenaline-induced lethality (α1 receptors): 5.11 mg/kg
ED50 [12]: 12.5 mg/kg
depressant action on the level of CNS (mice): several times lower depressant action on the level of CNS if compared with haloperidol
ED50 [13]: 9.2 mg/kg
antipsychotic action [14]: strongest antipsychotic action

C#CCNC(=O)[C@@H]1C=C2c3cccc4[nH]cc(c34)C[C@H]2N(C)C1 [Example 1, 9,10-Didehydro-N-(2'-propinyl)-6-methylergoline-8β-carboxamide]
receptors responsible for vasoconstriction ([15]; 1 μM): the result of the activation of α1 -adrenergic receptors
constriction of the isolated rabbit thoracic aorta ([15]; in words): caused a constriction of the isolated rabbit thoracic aorta
intrinsic activity, aorta constriction ([15]; in words, vs serotonin): comparable to that of serotonin
uterotonic activity (isolated rat uterus): no uterotonic activity
exitus [5]: followed by exitus
time to onset of reduction in pressure and heart rate [5]: Approximately 2 minutes
effect on carotid artery pressure [5]: a strong reduction in the carotid artery pressure and heart rate
effect on heart rate [5]: a strong reduction in the carotid artery pressure and heart rate
peripheral vasoconstriction (pithed rats): transient, yet very strong peripheral vasoconstriction
inhibition at 4 mg/kg (5-HT2 receptors; 4 mg/kg i.p., D,L-5-hydroxytryptophan/carbidopa, 15 minutes prior): 62%
ED50 (5-HT2 receptors; 5-hydroxytryptophan/carbidopa): 0.74 mg/kg
dilatation of the pupil (pupil; 5 mg/kg i.p.): very strong dilatation of the pupil
time course of effect (pupil; 5 mg/kg i.p.): After 60 minutes the effect was quickly reduced
behavioural effects in mice (pupil): The mice became agitated, piloerection, tremor and excitation took place
Ki ([6]; 5-HT1A, [^3 H]8-OH-DPAT): 1 nM
affinity to 5-HT1A receptor [6]: high affinity; also recorded: possessed affinity
functional activity at 5-HT1A [7]: indicated an agonistic activity
affinity to sigma receptor (sigma receptor [8]): possessed affinity
functional activity at sigma receptor (sigma receptor [9]): indicated an antagonistic activity
Ki (5-HT2 receptor): 64 nM
affinity for 5-HT2 receptors (5-HT2 receptor): high affinity
Ki (D2 receptor): 151 nM
affinity for D2 receptors (D2 receptor): lower affinity
spontaneous tail-flick (5-HT1A receptors; 0.08 to 0.63 mg/kg s.c. (Example 1), 5.0 mg/kg s.c. (Example 2)): provoked a dose- and time-dependent spontaneous tail-flick in rats
tail-flick effect compared with 8-OH-DPAT (5-HT1A receptors; s.c.): very similar to that caused by the selective 5-HT1A agonist 8-OH-DPAT
